Read-outs that look alike come from different tables or passages of the source.
Legend:
L1210vDOX = assay: Reversal of MDR in L1210vDOX (MDR sensitization assay, doxorubicin with or without MDR inhibitor); format: cell-based, mouse; conditions: for IC50: 3 days
HL60/ADR cells = assay: Reversal of MRP-mediated MDR in HL60/ADR cells (doxorubicin with or without MDR inhibitor); format: cell-based; conditions: for Fold reversal (IC50 doxorubicin alone / IC50 doxorubicin + MDR inhibitor): HL60/ADR
Protocol: We plated HL60/ADR cells in 96 well microtiter plates (4×10^4 cells/well). The cells were then exposed to various concentrations of doxorubicin (50 nM to 10 μM) in the presence or absence of various compounds of this invention at various concentrations (0.5-10 μM). After culturing the cells for 3 days, their viability was quantitated using the XTT dye method to assess mitochondrial function. […] IC50 values are expressed in nM. In all assays the intrinsic antiproliferative or cytotoxicity activity of the MDR inhibitors was also determined for HL60/ADR cells.

[1] = IC50 of doxorubicin in presence of 0.5 μM Cpd, read-out: IC50 DOX + 0.5 μM Cpd
[2] = IC50 of doxorubicin in presence of 1.0 μM Cpd, read-out: IC50 DOX + 1.0 μM Cpd
[3] = IC50 of doxorubicin in presence of 2.5 μM Cpd, read-out: IC50 DOX + 2.5 μM Cpd

SMILES | IC50 (L1210vDOX; [1]) [nM] | IC50 (L1210vDOX; [2]) [nM] | IC50 (L1210vDOX; [3]) [nM] | MDR ratio (IC50 Dox / IC50 Dox+Inhibitor) (L1210vDOX; MDR ratio at 0.5 μM Cpd) | MDR ratio (IC50 Dox / IC50 Dox+Inhibitor) (L1210vDOX; MDR ratio at 1.0 μM Cpd) | MDR ratio (IC50 Dox / IC50 Dox+Inhibitor) (L1210vDOX; MDR ratio at 2.5 μM Cpd) | Fold reversal (IC50 doxorubicin alone / IC50 doxorubicin + MDR inhibitor) (HL60/ADR cells; ratio at 0.5 μM Cpd) | Fold reversal (IC50 doxorubicin alone / IC50 doxorubicin + MDR inhibitor) (HL60/ADR cells; ratio at 1.0 μM Cpd) | Fold reversal (IC50 doxorubicin alone / IC50 doxorubicin + MDR inhibitor) (HL60/ADR cells; ratio at 2.5 μM Cpd) | IC50 (HL60/ADR cells; Homo sapiens, 72 h, doxorubicin alone, control of the compound of the line, HL60/ADR cells, 3 days, read-out: IC50 DOX Alone) [nM]
COc1cc(C(=O)C(=O)N2CCCC[C@H]2C(=O)N[C@@H]2CCCc3ccc(OCc4ccncc4)cc32)cc(OC)c1OC [Compound 11A, 1-(2-Oxo-2-(3,4,5-trimethoxyphenyl)-acetyl)-piperidine-2(S)-carboxylic acid 2-((7-pyridin-4-ylmethoxy)-1,2,3,4-tetrahydronaphthalen-1(R)-yl) amide] | 650 | 350 | 175 | 1.1 | 2.0 | 4.0 |  |  |  | 
COc1cc(C(=O)C(=O)N2CCCC[C@H]2C(=O)N[C@H]2CCCc3ccc(OCc4ccncc4)cc32)cc(OC)c1OC [Compound 11B, 1-(2-Oxo-2-(3,4,5-trimethoxyphenyl)-acetyl)-piperidine-2(S)-carboxylic acid 2-((7-pyridin-4-ylmethoxy)-1,2,3,4-tetrahydronaphthalen-1(S)-yl) amide] | 400 | 325 | 70 | 1.8 | 2.2 | 10.0 |  |  |  | 
COc1cc(C(=O)C(=O)N2Cc3ccccc3C[C@H]2C(=O)O[C@@H]2CCCc3ccc(OCc4ccncc4)cc32)cc(OC)c1OC [Compound 17, 2-(2-Oxo-2-(3,4,5-trimethoxyphenyl)-acetyl)-1,2,3,4-tetrahydroisoquinoline-3(S)-carboxylic acid 2-((7-pyridin-4-ylmethoxy)-1,2,3,4-tetrahydronaphthalen-1(R)-yl) ester] |  |  |  | 5.6 | 8.7 | 11.1 | 2.3 | 11.7 | 11.7 | 
COc1cc(C(=O)C(=O)N2Cc3ccccc3C[C@H]2C(=O)O[C@H]2CCCc3ccc(OCc4ccncc4)cc32)cc(OC)c1OC [Compound 18, 2-(2-Oxo-2-(3,4,5-trimethoxyphenyl)-acetyl)-1,2,3,4-tetrahydroisoquinoline-3(S)-carboxylic acid 2-((7-pyridin-4-ylmethoxy)-1,2,3,4-tetrahydronaphthalen-1(S)-yl) ester] |  |  |  | 3.3 | 6.7 | 10.0 |  |  |  | 
COc1cc(C(=O)C(=O)N[C@@H](Cc2ccccc2)C(=O)O[C@@H]2CCCc3ccc(OCc4ccncc4)cc32)cc(OC)c1OC [Compound 19, 3-Benzyl-2(S)-((2-oxo-2-(3,4,5-trimethoxyphenyl-)acetyl)amino) propanoic acid ((7-pyridin-4-ylmethoxy)-1,2,3,4-tetrahydronaphthalen-1(R)-yl) ester] |  |  |  | 1.6 | 2.4 | 6.3 |  |  |  | 
COc1cc(C(=O)C(=O)N(C)[C@@H](Cc2ccccc2)C(=O)O[C@@H]2CCCc3ccc(OCc4ccncc4)cc32)cc(OC)c1OC [Compound 20, 3-Benzyl-2(S)-(methyl-(2-oxo-2-(3,4,5-trimethoxyphenyl)-acetyl)amino) propanoic acid ((7-pyridin-4-ylmethoxy)-1,2,3,4-tetrahydronaphthalen-1(R)-yl) ester] |  |  |  | 3.0 | 7.0 | 10.5 |  |  |  | 
COc1cc(C(=O)C(=O)N(C)[C@@H](Cc2ccccc2)C(=O)O[C@H]2CCCc3ccc(OCc4ccncc4)cc32)cc(OC)c1OC [Compound 21] |  |  |  | 5.4 | 6.8 | 8.7 | 3.5 | 3.2 | 23 | 
CCCOc1cc2c(c(OCCC)c1C)CC[C@H](Cc1cccnc1)[C@@H]2OC(=O)[C@@H]1CCCCN1C(=O)C(=O)c1cc(OC)c(OC)c(OC)c1 [Compound 29A] | 250 | 190 | < 50 | 1.4 | 1.8 | > 7.0 |  |  |  | 
COc1cccc2c1C(=O)c1c(O)c3c(c(O)c1C2=O)C[C@@](O)(C(=O)CO)C[C@@H]3O[C@H]1C[C@H](N)[C@H](O)[C@H](C)O1 [DOX, doxorubicin, reference compound] |  |  |  |  |  |  |  |  |  | 3500

Reference: patent US5726184A, “Tetralin compounds with improved MDR activity” (Vertex Pharmaceuticals Incorporated, priority 1995, dated 1998)
